Experiment [1] deals with WT (wild-type HIV virus; recombinant NL4-3 virus). Put plainly: microbe, parasite or virus in culture. In kind it is cell-based, HIV-1. The procedure:
(§1) MT-2 cells and 293T cells were obtained from the NIH AIDS Research and Reference Reagent Program. MT-2 cells were propagated in RPMI 1640 media supplemented with 10% heat-inactivated fetal bovine serum, […]. The 293T cells were propagated in DMEM media supplemented with 10% heat-inactivated fetal bovine serum (FBS), 100 units/mL penicillin G and 100 μg/mL streptomycin. […] A recombinant NL4-3 virus, in which a section of the nef gene from NL4-3 was replaced with the Renilla luciferase gene, was used as a reference virus. In addition, residue Gag P373 was converted to P373S. […] Transfections were performed in 293T cells using LipofectAMINE PLUS from Invitrogen (Carlsbad, Calif.), according to manufacturer's instruction. The virus was titered in MT-2 cells using luciferase enzyme activity as a marker. Luciferase was quantitated using the Dual Luciferase kit from Promega (Madison, Wis.), with modifications to the manufacturer's protocol. The diluted Passive Lysis solution was pre-mixed with the re-suspended Luciferase Assay Reagent and the re-suspended Stop & Glo Substrate (2:1:1 ratio). Fifty (50) μL of the mixture was added to each aspirated well on assay plates and luciferase activity was measured immediately on a Wallac TriLux (Perkin-Elmer). Antiviral activities of inhibitors toward the recombinant virus were quantified by measuring luciferase activity in cells infected for 4-5 days with NLRluc recombinants in the presence serial dilutions of the inhibitor.
WT refers to wild-type HIV virus. […]

The subject of experiment [2] is HIV-1 NL4-3 gag A364V virus. The experiment is described as follows: microbe, parasite or virus in culture. In kind it is cell-based. The procedure:
as §1
Both recombinant viruses were used as described above in the HIV cell culture assay for the NL4-3 virus.

Setting [3] is: Human immunodeficiency virus 1, NL43, MT2, read-out: WT (EC50, uM), Table 1 regular screen, class symbol.
Setting [4] is: Human immunodeficiency virus 1, NL43, MT2, read-out: A364V (EC50, uM), Table 1 regular screen, class symbol.
[5] abbreviates: Human immunodeficiency virus 1, NL43, MT2, read-out: WT (EC50, uM), Table 1 regular screen, MT-2 cells, luciferase readout.
The mark [6] stands for this setting: Human immunodeficiency virus 1, NL43, MT2, read-out: A364V (EC50, uM), Table 1 regular screen, MT-2 cells, luciferase readout.

Where two headings read alike, the source gives them in different places.

Take `C=C(C)[C@@H]1CC[C@]2(NCCN3CCS(=O)(=O)CC3C(=O)OCC)CC[C@]3(C)[C@H](CC[C@@H]4[C@@]5(C)CC=C(C6=CC[C@@](CF)(C(=O)O)CC6)C(C)(C)[C@@H]5CC[C@]43C)[C@@H]12` (single isomer, unassigned) [Example 14]: the EC50 in experiment [1] (setting [3]) and in experiment [2] (setting [4]) was less than 0.05 µM throughout.
For the compound `C=C(C)[C@@H]1CC[C@]2(NC(CN)C(F)(F)F)CC[C@]3(C)[C@H](CC[C@@H]4[C@@]5(C)CC=C(C6=CC[C@](CF)(C(=O)O)CC6)C(C)(C)[C@@H]5CC[C@]43C)[C@@H]12` (single isomer, unassigned) [Example 39], the values for the EC50 in experiment [1] (setting [5]) and in experiment [2] (setting [6]) were 0.0473 µM and 2.03 µM, respectively.
In the case of `C=C(C)[C@@H]1CC[C@]2(NC(CN)C(F)(F)F)CC[C@]3(C)[C@H](CC[C@@H]4[C@@]5(C)CC=C(C6=CC[C@](CF)(C(=O)O)CC6)C(C)(C)[C@@H]5CC[C@]43C)[C@@H]12` (single isomer, unassigned) [Example 40], the concentration giving a half-maximal response (EC50) in experiment [1] (read-out: WT (EC50), Table 1 regular screen, MT-2 cells, luciferase readout) was found to be 0.0687 µM; in experiment [2] (read-out: A364V (EC50), Table 1 regular screen, MT-2 cells, luciferase readout), 3 µM.
With `C=C(C)[C@@H]1CC[C@]2(NC(CN3CCS(=O)(=O)CC3)C(F)(F)F)CC[C@]3(C)[C@H](CC[C@@H]4[C@@]5(C)CC=C(C6=CC[C@](CF)(C(=O)O)CC6)C(C)(C)[C@@H]5CC[C@]43C)[C@@H]12` (single isomer, unassigned) [Example 42], the EC50 in experiment [1] (setting [3]) and in experiment [2] (setting [4]) was more than 0.05 µM each time.
Consider `C=C(C)[C@@H]1CC[C@]2(NCCN3C[C@@H]4CC3CS4(=O)=O)CC[C@]3(C)[C@H](CC[C@@H]4[C@@]5(C)CC=C(C6=CC[C@](CF)(C(=O)O)CC6)C(C)(C)[C@@H]5CC[C@]43C)[C@@H]12` (stereo in doubt) [Example 4, (S)-4-((1R,3aS,5aR,5bR,7aR,11aS,11bR,13aR,13bR)-3a-((2-((1S,4S)-2,2-dioxido-2-thia-5-azabicyclo[2.2.1]heptan-5-yl)ethyl)amino)-5a,5b, 8,8,11a-pentamethyl-1-(prop-1-en-2-yl)-2,3,3a,4,5,5a,5b,6,7,7a,8,11,11a,11b,12,13,13a,13b-octadecahydro-1H-cyclopenta[a]chrysen-9-yl)-1-(fluoromethyl)cyclohex-3-enecarboxylic acid], for which the EC50 was 0.00141 µM in experiment [1] (setting [5]) and 0.0392 µM in experiment [2] (setting [6]).
On to `C=C(C)[C@@H]1CC[C@]2(NCCC(C)(C)O)CC[C@]3(C)[C@H](CC[C@@H]4[C@@]5(C)CC=C(C6=CC[C@](CF)(C(=O)O)CC6)C(C)(C)[C@@H]5CC[C@]43C)[C@@H]12` [Example 2-1, (S)-1-(fluoromethyl)-4-((1R,3aS,5aR,5bR,7aR,11aS,11bR,13aR,13bR)-3a-((3-hydroxy-3-methylbutyl)amino)-5a,5b,8,8,11a-pentamethyl-1-(prop-1-en-2-yl)-2,3,3a,4,5,5a,5b,6,7,7a,8,11,11a,11b,12,13,13a,13b-octadecahydro-1H-cyclopenta[a]chrysen-9-yl)cyclohex-3-enecarboxylic acid], for which the figures for the EC50 in experiment [1] (setting [3]) and in experiment [2] (setting [4]) were less than 0.05 µM and more than 0.05 µM, respectively.
In the same order, the values of `C=C(C)[C@@H]1CC[C@]2(NCC(C)(C)O)CC[C@]3(C)[C@H](CC[C@@H]4[C@@]5(C)CC=C(C6=CC[C@](CF)(C(=O)O)CC6)C(C)(C)[C@@H]5CC[C@]43C)[C@@H]12` [Example 2-2, (S)-1-(fluoromethyl)-4-((1R,3aS,5aR,5bR,7aR,11aS,11bR,13aR,13bR)-3a-((2-hydroxy-2-methylpropyl)amino)-5a,5b,8,8,11a-pentamethyl-1-(prop-1-en-2-yl)-2,3,3a,4,5,5a,5b,6,7,7a,8,11,11a,11b,12,13,13a,13b-octadecahydro-1H-cyclopenta[a]chrysen-9-yl)cyclohex-3-enecarboxylic acid] are less than 0.05 µM and more than 0.05 µM.
In the same order, the values of `C=C(C)[C@@H]1CC[C@]2(NCCCC(C)(C)O)CC[C@]3(C)[C@H](CC[C@@H]4[C@@]5(C)CC=C(C6=CC[C@](CF)(C(=O)O)CC6)C(C)(C)[C@@H]5CC[C@]43C)[C@@H]12` [Example 2-3, (S)-1-(fluoromethyl)-4-((1R,3aS,5aR,5bR,7aR,11aS,11bR,13aR,13bR)-3a-((4-hydroxy-4-methylpentyl)amino)-5a,5b,8,8,11a-pentamethyl-1-(prop-1-en-2-yl)-2,3,3a,4,5,5a,5b,6,7,7a,8,11,11a,11b,12,13,13a,13b-octadecahydro-1H-cyclopenta[a]chrysen-9-yl)cyclohex-3-enecarboxylic acid] are less than 0.05 µM and more than 0.05 µM.
With `C=C(C)[C@@H]1CC[C@]2(NCCC(O)(CC)CC)CC[C@]3(C)[C@H](CC[C@@H]4[C@@]5(C)CC=C(C6=CC[C@](CF)(C(=O)O)CC6)C(C)(C)[C@@H]5CC[C@]43C)[C@@H]12` [Example 2-4, (S)-4-((1R,3aS,5aR,5bR,7aR,11aS,11bR,13aR,13bR)-3a-((3-ethyl-3-hydroxypentyl)amino)-5a,5b,8,8,11a-pentamethyl-1-(prop-1-en-2-yl)-2,3,3a,4,5,5a,5b,6,7,7a,8,11,11a,11b,12,13,13a,13b-octadecahydro-1H-cyclopenta[a]chrysen-9-yl)-1-(fluoromethyl)cyclohex-3-enecarboxylic acid], the EC50 in experiment [1] (setting [3]) is less than 0.05 µM; in experiment [2] (setting [4]), more than 0.05 µM.
Regarding `C=C(C)[C@@H]1CC[C@]2(NCC=C(C3CC3)C3CC3)CC[C@]3(C)[C@H](CC[C@@H]4[C@@]5(C)CC=C(C6=CC[C@](CF)(C(=O)O)CC6)C(C)(C)[C@@H]5CC[C@]43C)[C@@H]12` [Example 2-6, (S)-4-((1R,3aS,5aR,5bR,7aR,11aS,11bR,13aR,13bR)-3a-((3,3-dicyclopropylallyl)amino)-5a,5b,8,8,11a-pentamethyl-1-(prop-1-en-2-yl)-2,3,3a,4,5,5a,5b,6,7,7a,8,11,11a,11b,12,13,13a,13b-octadecahydro-1H-cyclopenta[a]chrysen-9-yl)-1-(fluoromethyl)cyclohex-3-enecarboxylic acid], the EC50 in experiment [1] (setting [5]) is 0.011 µM; in experiment [2] (setting [6]) it was 3 µM.
For the compound `C=C(C)[C@@H]1CC[C@]2(NCCC(C)C)CC[C@]3(C)[C@H](CC[C@@H]4[C@@]5(C)CC=C(C6=CC[C@](CF)(C(=O)O)CC6)C(C)(C)[C@@H]5CC[C@]43C)[C@@H]12` [Example 2-7, (S)-1-(fluoromethyl)-4-((1R,3aS,5aR,5bR,7aR,11aS,11bR,13aR,13bR)-3a-(isopentylamino)-5a,5b,8,8,11a-pentamethyl-1-(prop-1-en-2-yl)-2,3,3a,4,5,5a,5b,6,7,7a,8,11,11a,11b,12,13,13a,13b-octadecahydro-1H-cyclopenta[a]chrysen-9-yl)cyclohex-3-enecarboxylic acid], the EC50 in experiment [1] (setting [5]) was determined as 0.116 µM; in experiment [2] (setting [6]), 3 µM.
Turning to `C=C(C)[C@@H]1CC[C@]2(NCC(O)CN3CCS(=O)(=O)CC3)CC[C@]3(C)[C@H](CC[C@@H]4[C@@]5(C)CC=C(C6=CC[C@](CF)(C(=O)O)CC6)C(C)(C)[C@@H]5CC[C@]43C)[C@@H]12` (stereo partly drawn) [Example 2-8, (1S)-4-((1R,3aS,5aR,5bR,7aR,11aS,11bR,13aR,13bR)-3a-((3-(1,1-dioxidothiomorpholino)-2-hydroxypropyl)amino)-5a,5b, 8,8,11a-pentamethyl-1-(prop-1-en-2-yl)-2,3,3a,4,5,5a,5b,6,7,7a,8,11,11a,11b,12,13,13a,13b-octadecahydro-1H-cyclopenta[a]chrysen-9-yl)-1-(fluoromethyl)cyclohex-3-enecarboxylic acid], the EC50 in experiment [1] (setting [5]) came to 0.00233 µM; in experiment [2] (setting [6]) it was 1.91 µM.
For `C=C(C)[C@@H]1CC[C@]2(NCCC3(O)CCC3)CC[C@]3(C)[C@H](CC[C@@H]4[C@@]5(C)CC=C(C6=CC[C@](CF)(C(=O)O)CC6)C(C)(C)[C@@H]5CC[C@]43C)[C@@H]12` [Example 2-9, (S)-1-(fluoromethyl)-4-((1R,3aS,5aR,5bR,7aR,11aS,11bR,13aR,13bR)-3a-((2-(1-hydroxycyclobutyl)ethyl)amino)-5a,5b,8,8,11a-pentamethyl-1-(prop-1-en-2-yl)-2,3,3a,4,5,5a,5b,6,7,7a,8,11,11a,11b,12,13,13a,13b-octadecahydro-1H-cyclopenta[a]chrysen-9-yl)cyclohex-3-enecarboxylic acid], the results for the EC50 in experiment [1] (setting [3]) and in experiment [2] (setting [4]) were less than 0.05 µM and more than 0.05 µM, respectively.

As a reminder, the EC50 is the concentration at which the effect is half-maximal.

The values are drawn from US10245275B2 (ViiV HEALTHCARE UK (NO.4) LIMITED, priority 2014, dated 2019).
